Laboratory results as given in PubChem BioAssay AID1259407 (Chemical Carcinogenesis Research Information System (CCRIS), 2018).
Activity calls are given as the source filed them. The rule behind the calls is not given here.

Test system: CCRIS mutagenicity, Ames/micronucleus/aberration tests
Experiment: CCRIS mutagenicity studies
[1] = Test System: AMES SALMONELLA TYPHIMURIUM, Strain/Indicator: TA98, Metabolic Activation: NONE, Method: PREINCUBATION
[2] = Test System: AMES SALMONELLA TYPHIMURIUM, Strain/Indicator: TA100, Metabolic Activation: NONE, Method: PREINCUBATION
[3] = Test System: AMES SALMONELLA TYPHIMURIUM, Strain/Indicator: TA100, Metabolic Activation: NONE, Method: STANDARD PLATE

SMILES: CCOc1cc(C=O)ccc1O
- mutagenic call (Test System: AMES SALMONELLA TYPHIMURIUM, Strain/Indicator: TA97, Metabolic Activation: NONE, Method: PREINCUBATION): inactive; negative
- mutagenic call (Test System: AMES SALMONELLA TYPHIMURIUM, Strain/Indicator: TA97, Metabolic Activation: RAT, LIVER, S-9, AROCLOR 1254, Method: PREINCUBATION): inactive; negative
- mutagenic call [1]: inactive; negative
- mutagenic call (Test System: AMES SALMONELLA TYPHIMURIUM, Strain/Indicator: TA98, Metabolic Activation: RAT, LIVER, S-9, PHENOBARBITAL AND BETA-NAPHTHOFLAVONE, Method: PREINCUBATION): inactive; negative
- mutagenic call [2]: inactive; negative
- mutagenic call (Test System: AMES SALMONELLA TYPHIMURIUM, Strain/Indicator: TA100, Metabolic Activation: RAT, LIVER, S-9, PHENOBARBITAL AND BETA-NAPHTHOFLAVONE, Method: PREINCUBATION): inactive; negative
- mutagenic call (Test System: AMES SALMONELLA TYPHIMURIUM, Strain/Indicator: TA102, Metabolic Activation: NONE, Method: PREINCUBATION): inactive; negative
- mutagenic call (Test System: AMES SALMONELLA TYPHIMURIUM, Strain/Indicator: TA102, Metabolic Activation: RAT, LIVER, S-9, AROCLOR 1254, Method: PREINCUBATION): inactive; negative
- mutagenic call (Test System: AMES SALMONELLA TYPHIMURIUM, Strain/Indicator: TA102, Metabolic Activation: RAT, LIVER, S-9, PHENOBARBITAL AND BETA-NAPHTHOFLAVONE, Method: PREINCUBATION): inactive; negative
- mutagenic call (Test System: AMES SALMONELLA TYPHIMURIUM, Strain/Indicator: TA104, Metabolic Activation: NONE, Method: PREINCUBATION): inactive; negative
- mutagenic call (Test System: AMES SALMONELLA TYPHIMURIUM, Strain/Indicator: TA104, Metabolic Activation: RAT, LIVER, S-9, PHENOBARBITAL AND BETA-NAPHTHOFLAVONE, Method: PREINCUBATION): inactive; negative
- mutagenic call (Test System: AMES SALMONELLA TYPHIMURIUM, Strain/Indicator: TA1535, Metabolic Activation: NONE, Method: PREINCUBATION): inactive; negative
- mutagenic call (Test System: AMES SALMONELLA TYPHIMURIUM, Strain/Indicator: TA1535, Metabolic Activation: RAT, LIVER, S-9, PHENOBARBITAL AND BETA-NAPHTHOFLAVONE, Method: PREINCUBATION): inactive; negative
- mutagenic call (Test System: AMES SALMONELLA TYPHIMURIUM, Strain/Indicator: TA1537, Metabolic Activation: NONE, Method: PREINCUBATION): inactive; negative
- mutagenic call (Test System: AMES SALMONELLA TYPHIMURIUM, Strain/Indicator: TA1537, Metabolic Activation: RAT, LIVER, S-9, PHENOBARBITAL AND BETA-NAPHTHOFLAVONE, Method: PREINCUBATION): inactive; negative
- mutagenic call (Test System: E. COLI, Strain/Indicator: WP2UVRA/PKM101, Metabolic Activation: NONE, Method: PREINCUBATION): inactive; negative
- mutagenic call (Test System: E. COLI, Strain/Indicator: WP2UVRA/PKM101, Metabolic Activation: RAT, LIVER, S-9, PHENOBARBITAL AND BETA-NAPHTHOFLAVONE, Method: PREINCUBATION): inactive; negative
- mutagenic call (Test System: E. COLI, Strain/Indicator: WP2UVRA, Metabolic Activation: NONE, Method: PREINCUBATION): inactive; negative
- mutagenic call (Test System: E. COLI, Strain/Indicator: WP2UVRA, Metabolic Activation: RAT, LIVER, S-9, PHENOBARBITAL AND BETA-NAPHTHOFLAVONE, Method: PREINCUBATION): inactive; negative

SMILES: CCC(=O)Oc1ccc(/C(CC)=C(\CC)c2ccc(OC(=O)CC)cc2)cc1
- mutagenic call (Test System: AMES SALMONELLA TYPHIMURIUM, Strain/Indicator: TA98, Metabolic Activation: NONE, Method: STANDARD PLATE): inactive; negative
- mutagenic call (Test System: AMES SALMONELLA TYPHIMURIUM, Strain/Indicator: TA98, Metabolic Activation: RAT, LIVER, S-9, Method: STANDARD PLATE): inactive; negative
- mutagenic call [3]: inactive; negative
- mutagenic call (Test System: AMES SALMONELLA TYPHIMURIUM, Strain/Indicator: TA100, Metabolic Activation: RAT, LIVER, S-9, Method: STANDARD PLATE): inactive; negative
- mutagenic call (Test System: AMES SALMONELLA TYPHIMURIUM, Strain/Indicator: TA1535, Metabolic Activation: NONE, Method: STANDARD PLATE): inactive; negative
- mutagenic call (Test System: AMES SALMONELLA TYPHIMURIUM, Strain/Indicator: TA1535, Metabolic Activation: RAT, LIVER, S-9, Method: STANDARD PLATE): inactive; negative
- mutagenic call (Test System: AMES SALMONELLA TYPHIMURIUM, Strain/Indicator: TA1537, Metabolic Activation: NONE, Method: STANDARD PLATE): inactive; negative
- mutagenic call (Test System: AMES SALMONELLA TYPHIMURIUM, Strain/Indicator: TA1537, Metabolic Activation: RAT, LIVER, S-9, Method: STANDARD PLATE): inactive; negative
- mutagenic call (Test System: AMES SALMONELLA TYPHIMURIUM, Strain/Indicator: TA1538, Metabolic Activation: NONE, Method: STANDARD PLATE): inactive; negative
- mutagenic call (Test System: AMES SALMONELLA TYPHIMURIUM, Strain/Indicator: TA1538, Metabolic Activation: RAT, LIVER, S-9, Method: STANDARD PLATE): inactive; negative

SMILES: O=C1NC(=O)C(Cl)=C1Cl
- mutagenic call [3]: active; positive

SMILES: CC(=O)[O-].CC(=O)[O-].[Cd+2]
- mutagenic call (End Point: IN VITRO MICRONUCLEUS, Test System: CHL/IU CELLS, Metabolic Activation: NONE): active; positive
- mutagenic call (Test System: CHINESE HAMSTER OVARY, Strain/Indicator: CHO-K1 (HPRT)/6-THIOGUANINE, Metabolic Activation: NONE): active; positive

SMILES: O=C(O)c1ccc(/C=C/c2ccc([N+](=O)[O-])o2)cc1
- mutagenic call [1]: active; positive
- mutagenic call (Test System: AMES SALMONELLA TYPHIMURIUM, Strain/Indicator: TA98, Metabolic Activation: RAT, LIVER, S-9, PCB, Method: PREINCUBATION): active; positive
- mutagenic call [2]: active; positive
- mutagenic call (Test System: AMES SALMONELLA TYPHIMURIUM, Strain/Indicator: TA100, Metabolic Activation: RAT, LIVER, S-9, PCB, Method: PREINCUBATION): active; positive
